Experimental data reported in US20240384350A1, “METHODS OF TREATING CANCER WITH KINASE INHIBITORS” (BOARD OF REGENTS, THE UNIVERSITY OF TEXAS SYSTEM, priority 2021, published 2024).

Legend:
Test in all cases: Ba/F3 drug screening, Cell Titer Glo, IC50 Mut/WT
Type in all cases: cell-based
EGFR E709K L858R = molecular target: T1, EGFR E709K L858R (Homo sapiens, UniProt P00533, E709K/L858R); conditions: Classical-Like, 72 hours
T1 construct: expressed in transfected cells; host or cells: Ba/F3 cells, retroviral pBabe-Puro vector

EGFR E709K G719S = molecular target: T2, EGFR E709K G719S (Homo sapiens, UniProt P00533, E709K/G719S)
T2 construct: expressed in transfected cells; host or cells: Ba/F3

EGFR Ex19del T790M = molecular target: T3, EGFR Ex19del T790M (Homo sapiens, UniProt P00533, DEL746-750/T790M); conditions: T790M-like-3S, 72 hours
T3 construct: expressed in transfected cells; host or cells: Ba/F3

EGFR L718V = molecular target: T4, EGFR L718V (Homo sapiens, UniProt P00533, L718V)
T4 construct: expressed in transfected cells; host or cells: Ba/F3
Procedure: (§1) Data represent the ratio of the IC50 value for a given TKI for cells with a PACC EGFR mutation to the IC50 value for cells with wildtype EGFR.
(§2) Ba/F3 cell generation, drug screening, and IC50 approximations. Ba/F3 cells were obtained as a gift from Dr. Gordon Mills (MD Anderson Cancer Center), and maintained in RPMI (Sigma) containing 10% FBS, 1% penicillin/streptomycin, and 10 ng/ml recombinant mIL-3 (R&D Biosystems). To establish stable Ba/F3 cell lines, Ba/F3 cells were transduced with retroviruses containing mutant EGFR plasmids for 12-24 hours.
(§3) After 48-72 hours of transduction, 2 μg/ml puromycin (Invitrogen) was added to Ba/F3 cell lines in complete RPMI. To select for EGFR positive cell lines, cells were stained with PE-EGFR (Biolegend) and sorted by FACS. After sorting, EGFR positive cells were maintained in RPMI containing 10% FBS, 1% penicillin/streptomycin, and 1 ng/ml EGF to support cell viability. Drug screening was performed as previously described^41,42. Shortly, cells were plated in 384-well plates (Greiner Bio-One) at 2000-3000 cells per well in technical triplicate. Seven different concentrations of TKIs or DMSO vehicle were added to reach a final volume of 40 μL per well. After 72 hours, 11 μL of Cell Titer Glo (Promega) was added to each well. Plates were incubated for a minimum of 10 minutes, and bioluminescence was determined using a FLUOstar OPTIMA plate reader (BMG LABTECH). Raw bioluminescence values were normalized to DMSO control treated cells, and values were plotted in GraphPad Prism. […] Drug screens were performed in technical triplicate on each plate and either duplicate or triplicate biological replicates.

EGFR A763insFQEA = molecular target: T5, EGFR A763insFQEA (Homo sapiens, UniProt P00533, INS763FQEA); conditions: Classical-Like, 72 hours
T5 construct: expressed in transfected cells; host or cells: Ba/F3 cells, retroviral pBabe-Puro vector

EGFR E709K = molecular target: T6, EGFR E709K (Homo sapiens, UniProt P00533, E709K)
T6 construct: expressed in transfected cells; host or cells: Ba/F3

EGFR A763insLQEA = molecular target: T7, EGFR A763insLQEA (Homo sapiens, UniProt P00533, INS763LQEA); conditions: Classical-Like, 72 hours
T7 construct: expressed in transfected cells; host or cells: Ba/F3 cells, retroviral pBabe-Puro vector
Procedure: (§4) Data represent the ratio of the IC50 value for a given TKI for cells with a classical-like EGFR mutation to the IC50 value for cells with wildtype EGFR.
as §2
(§5) After 48-72 hours of transduction, 2 μg/ml puromycin (Invitrogen) was added to Ba/F3 cell lines in complete RPMI. To select for EGFR positive cell lines, cells were stained with PE-EGFR (Biolegend) and sorted by FACS. After sorting, EGFR positive cells were maintained in RPMI containing 10% FBS, 1% penicillin/streptomycin, and 1 ng/ml EGF to support cell viability. […] Shortly, cells were plated in 384-well plates (Greiner Bio-One) at 2000-3000 cells per well in technical triplicate. Seven different concentrations of TKIs or DMSO vehicle were added to reach a final volume of 40 μL per well. After 72 hours, 11 μL of Cell Titer Glo (Promega) was added to each well. Plates were incubated for a minimum of 10 minutes, and bioluminescence was determined using a FLUOstar OPTIMA plate reader (BMG LABTECH). Raw bioluminescence values were normalized to DMSO control treated cells, and values were plotted in GraphPad Prism. […] Drug screens were performed in technical triplicate on each plate and either duplicate or triplicate biological replicates.

EGFR T790M = molecular target: T8, EGFR T790M (Homo sapiens, UniProt P00533, T790M); conditions: T790M-like-3S, 72 hours
T8 construct: expressed in transfected cells; host or cells: Ba/F3

EGFR Ex19del L718V = molecular target: T9, EGFR Ex19del L718V (Homo sapiens, UniProt P00533, DEL746-750/L718V)
T9 construct: expressed in transfected cells; host or cells: Ba/F3

EGFR L858R/C797S = molecular target: T10, EGFR L858R/C797S (Homo sapiens, UniProt P00533, C797S/L858R)
T10 construct: expressed in transfected cells; host or cells: Ba/F3

EGFR N771dupN = molecular target: T11, EGFR N771dupN (Homo sapiens, UniProt P00533, DUP771-771); conditions: Ex20, 72 hours
T11 construct: expressed in transfected cells; host or cells: Ba/F3 cells, retroviral pBabe-Puro vector
Procedure: (§6) Data represent the ratio of the IC50 value for a given TKI for cells with an ex20ins EGFR mutation to the IC50 value for cells with wildtype EGFR.
as §2
(§7) After 48-72 hours of transduction, 2 μg/ml puromycin (Invitrogen) was added to Ba/F3 cell lines in complete RPMI. To select for EGFR positive cell lines, cells were stained with PE-EGFR (Biolegend) and sorted by FACS. After sorting, EGFR positive cells were maintained in RPMI containing 10% FBS, 1% penicillin/streptomycin, and 1 ng/ml EGF to support cell viability. Drug screening was performed as previously described^41,42. Shortly, cells were plated in 384-well plates (Greiner Bio-One) at 2000-3000 cells per well in technical triplicate. Seven different concentrations of TKIs or DMSO vehicle were added to reach a final volume of 40 μL per well. After 72 hours, 11 μL of Cell Titer Glo (Promega) was added to each well. Plates were incubated for a minimum of 10 minutes, and bioluminescence was determined using a FLUOstar OPTIMA plate reader (BMG LABTECH). Raw bioluminescence values were normalized to DMSO control treated cells, and values were plotted in GraphPad Prism. […] Drug screens were performed in technical triplicate on each plate and either duplicate or triplicate biological replicates. […] Statistical differences between groups were determined by ANOVA as described in the figure legends.

EGFR G724S = molecular target: T12, EGFR G724S (Homo sapiens, UniProt P00533, G724S)
T12 construct: expressed in transfected cells; host or cells: Ba/F3

EGFR S720P = molecular target: T13, EGFR S720P (Homo sapiens, UniProt P00533, S720P); conditions: Classical-Like, 72 hours
T13 construct: expressed in transfected cells; host or cells: Ba/F3 cells, retroviral pBabe-Puro vector (vector made by GeneScript from EGFR WT)

EGFR Ex19del/T790M/L792H = molecular target: T14, EGFR Ex19del/T790M/L792H (Homo sapiens, UniProt P00533, DEL746-750/L792H/T790M); conditions: T790M-like-3R, 72 hours
T14 construct: expressed in transfected cells; host or cells: Ba/F3
Procedure: (§8) Data represent the ratio of the IC50 value for a given TKI for cells with a T790M-like-3R EGFR mutation to the IC50 value for cells with wildtype EGFR.
as §2
(§9) After 48-72 hours of transduction, 2 μg/ml puromycin (Invitrogen) was added to Ba/F3 cell lines in complete RPMI. To select for EGFR positive cell lines, cells were stained with PE-EGFR (Biolegend) and sorted by FACS. After sorting, EGFR positive cells were maintained in RPMI containing 10% FBS, 1% penicillin/streptomycin, and 1 ng/ml EGF to support cell viability. […] Shortly, cells were plated in 384-well plates (Greiner Bio-One) at 2000-3000 cells per well in technical triplicate. Seven different concentrations of TKIs or DMSO vehicle were added to reach a final volume of 40 μL per well. After 72 hours, 11 μL of Cell Titer Glo (Promega) was added to each well. Plates were incubated for a minimum of 10 minutes, and bioluminescence was determined using a FLUOstar OPTIMA plate reader (BMG LABTECH). Raw bioluminescence values were normalized to DMSO control treated cells, and values were plotted in GraphPad Prism. […] Drug screens were performed in technical triplicate on each plate and either duplicate or triplicate biological replicates. […] Statistical differences between groups were determined by ANOVA as described in the figure legends.

EGFR G719S T790M = molecular target: T15, EGFR G719S T790M (Homo sapiens, UniProt P00533, G719S/T790M); conditions: T790M-like-3S, 72 hours
T15 construct: expressed in transfected cells; host or cells: Ba/F3
Procedure: (§10) Data represent the ratio of the IC50 value for a given TKI for cells with a T790M-like-3S EGFR mutation to the IC50 value for cells with wildtype EGFR.
as §2, §3

EGFR L861Q = molecular target: T16, EGFR L861Q (Homo sapiens, UniProt P00533, L861Q); conditions: Classical-Like, 72 hours
T16 construct: expressed in transfected cells; host or cells: Ba/F3 cells, retroviral pBabe-Puro vector
Procedure: as §4, §2, §5

EGFR Ex19del G796S = molecular target: T17, EGFR Ex19del G796S (Homo sapiens, UniProt P00533, DEL746-750/G796S)
T17 construct: expressed in transfected cells; host or cells: Ba/F3
Procedure: as §1, §2, §3

EGFR L858R T790M L792H = molecular target: T18, EGFR L858R T790M L792H (Homo sapiens, UniProt P00533, L792H/L858R/T790M); conditions: T790M-like-3S, 72 hours
T18 construct: expressed in transfected cells; host or cells: Ba/F3
Procedure: as §10, §2, §3

EGFR Ex19del T790M C797S = molecular target: T19, EGFR Ex19del T790M C797S (Homo sapiens, UniProt P00533, C797S/DEL746-750/T790M); conditions: T790M-like-3R, 72 hours
T19 construct: expressed in transfected cells; host or cells: Ba/F3
Procedure: as §8, §2, §9

EGFR G719A = molecular target: T20, EGFR G719A (Homo sapiens, UniProt P00533, G719A)
T20 construct: expressed in transfected cells; host or cells: Ba/F3
Procedure: as §1, §2, §3

EGFR G719S = molecular target: T21, EGFR G719S (Homo sapiens, UniProt P00533, G719S)
T21 construct: expressed in transfected cells; host or cells: Ba/F3
Procedure: as §1, §2, §3

EGFR G719A T790M = molecular target: T22, EGFR G719A T790M (Homo sapiens, UniProt P00533, G719A/T790M); conditions: T790M-like-3S, 72 hours
T22 construct: expressed in transfected cells; host or cells: Ba/F3

EGFR S768dupSVD = molecular target: T23, EGFR S768dupSVD (Homo sapiens, UniProt P00533, DUP768-770); conditions: Ex20, 72 hours
T23 construct: expressed in transfected cells; host or cells: Ba/F3 cells, retroviral pBabe-Puro vector
Procedure: as §6, §2, §7

EGFR E709A = molecular target: T24, EGFR E709A (Homo sapiens, UniProt P00533, E709A)
T24 construct: expressed in transfected cells; host or cells: Ba/F3

EGFR D761N = molecular target: T25, EGFR D761N (Homo sapiens, UniProt P00533, D761N); conditions: Classical-Like, 72 hours
T25 construct: expressed in transfected cells; host or cells: Ba/F3 cells, retroviral pBabe-Puro vector

EGFR Ex19del/C797S = molecular target: T26, EGFR Ex19del/C797S (Homo sapiens, UniProt P00533, C797S/DEL746-750)
T26 construct: expressed in transfected cells; host or cells: Ba/F3

EGFR L858R/L718V = molecular target: T27, EGFR L858R/L718V (Homo sapiens, UniProt P00533, L718V/L858R)
T27 construct: host or cells: Ba/F3

SMILES	ratio of IC50 for cells with mutant EGFR to IC50 for cells with wildtype EGFR (Mut/WT) (EGFR E709K L858R)	ratio of IC50 for cells with mutant EGFR to IC50 for cells with wildtype EGFR (Mut/WT) (EGFR Ex19del T790M)	ratio of IC50 for cells with mutant EGFR to IC50 for cells with wildtype EGFR (Mut/WT) (EGFR A763insFQEA)	ratio of IC50 for cells with mutant EGFR to IC50 for cells with wildtype EGFR (Mut/WT) (EGFR A763insLQEA)	ratio of IC50 for cells with mutant EGFR to IC50 for cells with wildtype EGFR (Mut/WT) (EGFR T790M)	ratio of IC50 for cells with mutant EGFR to IC50 for cells with wildtype EGFR (Mut/WT) (EGFR N771dupN)	ratio of IC50 for cells with mutant EGFR to IC50 for cells with wildtype EGFR (Mut/WT) (EGFR S720P)	ratio of IC50 for cells with mutant EGFR to IC50 for cells with wildtype EGFR (Mut/WT) (EGFR Ex19del/T790M/L792H)	ratio of IC50 for cells with mutant EGFR to IC50 for cells with wildtype EGFR (Mut/WT) (EGFR G719S T790M)	ratio of IC50 for cells with mutant EGFR to IC50 for cells with wildtype EGFR (Mut/WT) (EGFR L861Q)	ratio of IC50 for cells with mutant EGFR to IC50 for cells with wildtype EGFR (Mut/WT) (EGFR L858R T790M L792H)	ratio of IC50 for cells with mutant EGFR to IC50 for cells with wildtype EGFR (Mut/WT) (EGFR Ex19del T790M C797S)	ratio of IC50 for cells with mutant EGFR to IC50 for cells with wildtype EGFR (Mut/WT) (EGFR G719A T790M)	ratio of IC50 for cells with mutant EGFR to IC50 for cells with wildtype EGFR (Mut/WT) (EGFR S768dupSVD)	ratio of IC50 for cells with mutant EGFR to IC50 for cells with wildtype EGFR (Mut/WT) (EGFR D761N)	other results
C=CC(=O)Nc1cccc(Oc2nc(Nc3ccc(N4CCN(C)CC4)cc3)nc3ccsc23)c1 [Olmutinib]	0.01609	0.0004059	0.02753	0.07483	0.04611	0.4208	0.003331	2.218	0.02453	0.05048	0.004757	1.926	0.0114	0.5533	0.1654	ratio of the IC50 value for cells with a PACC EGFR mutation to the IC50 value for cells with wildtype EGFR (EGFR E709K G719S; Ba/F3 cells, EGFR E709K G719S (PACC), Mut/WT): 0.3569; ratio of the IC50 value for cells with a PACC EGFR mutation to the IC50 value for cells with wildtype EGFR (EGFR L718V; Ba/F3 cells, EGFR L718V (PACC), Mut/WT): 0.139; ratio of the IC50 value for cells with a PACC EGFR mutation to the IC50 value for cells with wildtype EGFR (EGFR E709K; Ba/F3 cells, EGFR E709K (PACC), Mut/WT): 0.05562; ratio of the IC50 value for cells with a PACC EGFR mutation to the IC50 value for cells with wildtype EGFR (EGFR Ex19del L718V; Ba/F3 cells, EGFR Ex19del L718V (PACC), Mut/WT): 0.0862; ratio of the IC50 value for cells with a PACC EGFR mutation to the IC50 value for cells with wildtype EGFR (EGFR L858R/C797S; Ba/F3 cells, EGFR L858R/C797S (PACC), Mut/WT): 2.242; ratio of the IC50 value for cells with a PACC EGFR mutation to the IC50 value for cells with wildtype EGFR (EGFR G724S; Ba/F3 cells, EGFR G724S (PACC), Mut/WT): 0.1827; ratio of the IC50 value for cells with a PACC EGFR mutation to the IC50 value for cells with wildtype EGFR (EGFR Ex19del G796S; Ba/F3 cells, EGFR Ex19del G796S (PACC), Mut/WT): 0.8234; ratio of the IC50 value for cells with a PACC EGFR mutation to the IC50 value for cells with wildtype EGFR (EGFR G719A; Ba/F3 cells, EGFR G719A (PACC), Mut/WT): 0.141; ratio of the IC50 value for cells with a PACC EGFR mutation to the IC50 value for cells with wildtype EGFR (EGFR G719S; Ba/F3 cells, EGFR G719S (PACC), Mut/WT): 0.214; ratio of the IC50 value for cells with a PACC EGFR mutation to the IC50 value for cells with wildtype EGFR (EGFR E709A; Ba/F3 cells, EGFR E709A (PACC), Mut/WT): 0.01516; ratio of the IC50 value for cells with a PACC EGFR mutation to the IC50 value for cells with wildtype EGFR (EGFR Ex19del/C797S; Ba/F3 cells, EGFR Ex19del/C797S (PACC), Mut/WT): 2.14; ratio of the IC50 value for cells with a PACC EGFR mutation to the IC50 value for cells with wildtype EGFR (EGFR L858R/L718V; Ba/F3 cells, EGFR L858R/L718V (PACC), Mut/WT): 0.8629
CNC(=O)CN1CCC(Oc2cc3c(Nc4cccc(Cl)c4F)ncnc3cc2OC)CC1 [Sapatinib]	0.02084	10.73	0.3137	0.004226	70.5	1.24	0.004664	451.7	54.78	0.01265	54.78	17.13	54.78	2.666	0.001814	ratio of IC50 for cells with mutant EGFR to IC50 for cells with wildtype EGFR (Mut/WT) (EGFR E709K G719S; PACC, E709K G719S, Ba/F3, 72 hours): 0.01102; ratio of IC50 for cells with mutant EGFR to IC50 for cells with wildtype EGFR (Mut/WT) (EGFR L718V; PACC, L718V, Ba/F3, 72 hours): 1.264; ratio of IC50 for cells with mutant EGFR to IC50 for cells with wildtype EGFR (Mut/WT) (EGFR E709K; PACC, E709K, Ba/F3, 72 hours): 0.1216; ratio of IC50 for cells with mutant EGFR to IC50 for cells with wildtype EGFR (Mut/WT) (EGFR Ex19del L718V; PACC, Ex19del L718V, Ba/F3, 72 hours): 0.08016; ratio of IC50 for cells with mutant EGFR to IC50 for cells with wildtype EGFR (Mut/WT) (EGFR L858R/C797S; PACC, L858R/C797S, Ba/F3, 72 hours): 0.001101; ratio of IC50 for cells with mutant EGFR to IC50 for cells with wildtype EGFR (Mut/WT) (EGFR G724S; PACC, G724S, Ba/F3, 72 hours): 0.141; ratio of IC50 for cells with mutant EGFR to IC50 for cells with wildtype EGFR (Mut/WT) (EGFR Ex19del G796S; PACC, Ex19del G796S, Ba/F3, 72 hours): 3.423; ratio of IC50 for cells with mutant EGFR to IC50 for cells with wildtype EGFR (Mut/WT) (EGFR G719A; PACC, G719A, Ba/F3, 72 hours): 0.01264; ratio of IC50 for cells with mutant EGFR to IC50 for cells with wildtype EGFR (Mut/WT) (EGFR G719S; PACC, G719S, Ba/F3, 72 hours): 0.1998; ratio of IC50 for cells with mutant EGFR to IC50 for cells with wildtype EGFR (Mut/WT) (EGFR E709A; PACC, E709A, Ba/F3, 72 hours): 0.3243; ratio of IC50 for cells with mutant EGFR to IC50 for cells with wildtype EGFR (Mut/WT) (EGFR Ex19del/C797S; PACC, Ex19del/C797S, Ba/F3, 72 hours): 0.0006085; ratio of IC50 for cells with mutant EGFR to IC50 for cells with wildtype EGFR (Mut/WT) (EGFR L858R/L718V; PACC, L858R/L718V, Ba/F3, 72 hours): 0.05575
